Entries after “also recorded” stand apart in the source; their conditions may differ.

One experiment deals with Kv1.3 (Homo sapiens, UniProt P22001). As to conditions: cited from earlier work; for inhibition of Kv1.3 activity: therapeutic levels.
For experiment [1] the following is noted: therapeutic dosages; cited from earlier work.
Another experiment deals with Kv1.1 (Homo sapiens, UniProt Q09470). As to conditions: cited from earlier work.
The target of the next experiment is Kv1.2 (Homo sapiens, UniProt P16389). As to conditions: cited from earlier work.
Experiment [2] concerns ob/ob mice. Briefly: Insulin sensitivity (blood glucose after IP human insulin) in non-fasting ob/ob mice given toxin. Type of experiment: in vivo, mouse. As to conditions: for insulin sensitivity: non-fasting ob/ob mice, toxin IP 30 minutes before insulin. As to the method: Non-fasting ob/ob (obese) mice (n=5), were given margatoxin 30 minutes prior to study as described elsewhere herein. Age-matched control ob/ob mice were sham injected with PBS. Both groups were given human insulin and blood glucose levels were monitored as described previously.
Non-fasting ob/ob (obese) mice (n=5), were given kaliotoxin (Alomone, Israel) 30 minutes prior to study as described elsewhere herein. Age-matched control ob/ob mice were sham injected with PBS. Both groups were given human insulin and blood glucose levels were monitored as described previously.

Experiment [3] deals with ob/ob mice. Briefly: Long-term pharmacological inhibition of Kv1.3 in ob/ob mice: food consumption and body weight. The experiment is classed as in vivo, mouse. As to the method: Long-term pharmacological inhibition of Kv1.3: Ob/ob mice were injected intraperitoneally with margatoxin or PBS (n=5 for each group) on days 0, 5, and 16 as described herein. Food consumption was monitored for 30 days, and weights were measured at the end of 30 days.

Another experiment concerns L6 cells. Briefly: D-glucose uptake in L6 cells. The experiment is classed as cell-based, rat. As to the method:
D-glucose uptake in L6 cells: L6 cells were maintained in Dulbecco's Modified Eagle's Medium (DMEM) containing 10% fetal bovine serum (FBS) and 1% penicillin-streptomycin in T-75 flasks at 37° C. and 5% CO2. To promote fusion into myotubules and quiescence, L6 cells were seeded onto 10 cm^2 flasks at a density of 3000 cells/cm^2 in DMEM containing 2% FBS. Myotube formation was determined by the percentage of nuclei in multinucleated cells. Glucose uptake assays were performed when 80-90% of the myoblasts fused into myotubes. Cells were serum starved for 3 hours in DMEM containing 0.2% bovine serum albumin, washed twice in PBS with 0.1 mM CaCl2, 0.1 MgCl2, 10 mM HEPES, pH 7.4. […] 2-deoxy-(^3H)D-glucose (1 μCi/ml, 10 μM/liter) uptake was measured in triplicate over a 10 minute period. The reaction was terminated by washing with ice-cold PBS. Non-specific uptake was determined by adding 10 mM phloretin and was subtracted from total uptake. Cells were lysed in 0.1 N KOH, and glucose uptake was measured by liquid scintillation (Packard BioScience, Meriden Conn.). […] was measured by Bradford Assay.

For the next experiment, the system named is C57BL/6 mice. Nature of the experiment: Insulin sensitivity (blood glucose after IP human insulin) in wild type C57BL/6 mice given margatoxin. The experiment is classed as in vivo, mouse. As to the method:
Plasma insulin levels and insulin sensitivity: Seven-week old C57BL6/6J male mice (n=5) were given 0.1 μg/gram body weight margatoxin 20 hours prior to study via IP injection. Controls (n=5) were sham injected with phosphate buffered saline (PBS). Two hours prior to study a second injection of margatoxin was administered to the treated experimental group. At t=0, both groups received human insulin as described previously. Blood glucose measurements were performed at the times indicated.

A further experiment deals with db/db mice. Briefly: Insulin sensitivity (blood glucose after IP human insulin) in fasting db/db mice given margatoxin. Type of experiment: in vivo, mouse. As to the method:
Fasting db/db (diabetic) mice (n=5), were given margatoxin 30 minutes prior to study as described elsewhere herein. Age-matched control db/db mice were sham injected with PBS. Both groups were given human insulin and blood glucose levels were monitored as described previously.

Sequence of Kv1.3 (P22001 whole entry): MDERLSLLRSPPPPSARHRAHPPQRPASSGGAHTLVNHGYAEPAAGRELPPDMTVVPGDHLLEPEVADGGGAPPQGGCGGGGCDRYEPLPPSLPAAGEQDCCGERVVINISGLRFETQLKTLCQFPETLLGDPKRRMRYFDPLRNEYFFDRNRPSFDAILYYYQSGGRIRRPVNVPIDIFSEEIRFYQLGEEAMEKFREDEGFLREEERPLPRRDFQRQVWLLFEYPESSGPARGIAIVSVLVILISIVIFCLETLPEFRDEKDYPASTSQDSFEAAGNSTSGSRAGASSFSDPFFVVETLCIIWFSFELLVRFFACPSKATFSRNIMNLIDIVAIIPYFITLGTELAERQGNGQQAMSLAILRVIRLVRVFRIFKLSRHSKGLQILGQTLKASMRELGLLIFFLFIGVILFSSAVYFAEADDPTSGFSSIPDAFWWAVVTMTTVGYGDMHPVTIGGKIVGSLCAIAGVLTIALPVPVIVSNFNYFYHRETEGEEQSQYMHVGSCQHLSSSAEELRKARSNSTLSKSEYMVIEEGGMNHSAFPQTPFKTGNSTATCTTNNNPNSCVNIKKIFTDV
Sequence of Kv1.2 (P16389 whole entry): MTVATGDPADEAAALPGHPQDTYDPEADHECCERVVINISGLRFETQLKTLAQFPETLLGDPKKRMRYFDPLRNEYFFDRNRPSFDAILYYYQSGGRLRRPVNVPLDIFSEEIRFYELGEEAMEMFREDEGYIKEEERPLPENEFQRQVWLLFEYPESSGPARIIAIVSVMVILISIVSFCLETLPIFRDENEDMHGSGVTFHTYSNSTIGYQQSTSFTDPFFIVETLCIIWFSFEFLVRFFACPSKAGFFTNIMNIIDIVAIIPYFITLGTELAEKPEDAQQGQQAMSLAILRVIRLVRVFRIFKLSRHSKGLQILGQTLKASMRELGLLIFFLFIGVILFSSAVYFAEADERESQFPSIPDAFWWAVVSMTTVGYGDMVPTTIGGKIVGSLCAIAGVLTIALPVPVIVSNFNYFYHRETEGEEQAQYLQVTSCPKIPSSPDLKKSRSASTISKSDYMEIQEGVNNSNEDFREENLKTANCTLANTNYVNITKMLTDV
Sequence of Kv1.1 (Q09470 whole entry): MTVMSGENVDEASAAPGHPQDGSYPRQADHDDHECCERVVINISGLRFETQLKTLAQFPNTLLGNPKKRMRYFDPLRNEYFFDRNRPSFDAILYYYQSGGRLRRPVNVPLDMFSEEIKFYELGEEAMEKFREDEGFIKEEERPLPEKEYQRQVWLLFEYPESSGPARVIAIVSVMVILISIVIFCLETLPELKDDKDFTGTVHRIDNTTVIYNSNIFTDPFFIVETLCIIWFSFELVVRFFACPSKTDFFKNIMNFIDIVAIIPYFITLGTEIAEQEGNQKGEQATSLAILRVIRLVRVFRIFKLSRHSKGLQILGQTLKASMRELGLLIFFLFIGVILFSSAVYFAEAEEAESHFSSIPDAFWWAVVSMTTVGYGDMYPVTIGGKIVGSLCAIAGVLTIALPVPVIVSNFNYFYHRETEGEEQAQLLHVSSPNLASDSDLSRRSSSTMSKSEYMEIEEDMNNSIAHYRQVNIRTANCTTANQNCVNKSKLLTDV

For `CNCCC(Oc1ccc(C(F)(F)F)cc1)c1ccccc1` (stereo not drawn) [fluxetine], the “inhibition of Kv1.3 activity” value at Kv1.3 is listed as “inhibit Kv1.3 activity”. Further, the insulin sensitivity result in [1] is given as “increase insulin sensitivity”.

`COc1ccc(CCN(C)CCCC(C#N)(c2ccc(OC)c(OC)c2)C(C)C)cc1OC` (stereo not drawn) [verapamil]: the “inhibition of Kv1.3 activity” value at Kv1.3 was “inhibit Kv1.3 activity”. In addition, the insulin sensitivity result in experiment [1] is listed as “increase insulin sensitivity”.

Broadly, the IC50 is the concentration that gives 50% inhibition. As to kaliotoxin, the IC50 was 0.6 nM in the experiment with Kv1.3 and 40 nM in the experiment with Kv1.1. The “inhibition of Kv1.2” value with Kv1.2 is “but not Kv1.2”. For the same compound, the “blood glucose, toxin and insulin vs insulin only” value in the experiment with ob/ob mice [2] (animals treated with kaliotoxin and insulin) is listed as “significantly lower blood glucose”. Also, the insulin sensitivity entry in the experiment on ob/ob mice [2] (vs PBS) is “significantly increased insulin sensitivity”.

For the compound “margatoxin (TIINVKCTSPKQCLPPCKAQFGQSAGAKCMNGKCKCYPH)”, the “body weight vs controls” value in the experiment on ob/ob mice [3] (ob/ob mice treated long term with margatoxin, IP days 0, 5, 16) is given as “weighed significantly less than controls”. In addition, in the experiment on ob/ob mice [3] (ob/ob mice, weights assessed to day 36), the “body weight after margatoxin treatment ceased at day 16” value is listed as “began to gain weight thereafter”. For the same compound, the “glucose uptake in L6 cells, margatoxin together with insulin” value in the experiment with L6 cells (200 nM insulin and 250 nM margatoxin, vs either alone or neither) was “significantly increased glucose uptake; also recorded: additive to that of insulin”. In addition, the “glucose uptake in L6 cells” value in the experiment on L6 cells (2-deoxy-D-glucose, phloretin-sensitive uptake, 0.2-250 nM margatoxin) is given as “increases uptake of glucose in L6 cells in a dose dependent manner; also recorded: significant increase in phloretin-sensitive glucose uptake”. Also, in the experiment with L6 cells (L6 cells, read-out: concentration necessary for 1/2 maximal increase in glucose uptake), the EC50 stood at 53 nM. In the experiment with Kv1.3, the “inhibition of Kv1.3” value was “fairly specific and potent inhibitor of Kv1.3”. In the experiment with Kv1.2, the “inhibition of Kv1.2” value is given as “also blocks Kv1.2”. The insulin sensitivity result in the experiment on ob/ob mice [2] (vs PBS) is reported as “significantly increased insulin sensitivity; also recorded: significantly more sensitive to insulin”. In the experiment with ob/ob mice [2] (ob/ob mice, margatoxin vs PBS), the “time after insulin at which difference in glucose level was evident” value is ≤ 30 min and the “time for which difference in glucose level persisted” value is “at least 3 hours”. In the experiment on ob/ob mice [2] (ob/ob mice, single injection of margatoxin, vs PBS), the “fall in blood glucose in response to insulin administration, greater than in control mice” value stood at 50%. For the same compound, the insulin sensitivity result with C57BL/6 mice (C57BL/6 mice, 0.1 μg/gram margatoxin IP, vs sham (PBS) injected controls) is reported as “increased insulin sensitivity”. Moreover, in the experiment with C57BL/6 mice (wild type C57BL/6 mice, margatoxin injection prior to study, vs PBS), the fasting blood glucose result is reported as “lower fasting blood glucose”. In the experiment with C57BL/6 mice (wild type C57BL/6 mice, toxin-treated vs PBS), the “blood glucose in response to insulin” value was “significantly lower blood glucose in response to insulin”. Also, the “fall in blood glucose of mice receiving insulin” value with db/db mice (db/db mice, margatoxin and insulin vs PBS and insulin) is recorded as “significantly greater fall in blood glucose”. For the same compound, in the experiment on db/db mice (db/db mice, margatoxin vs PBS), the “time at which difference in glucose levels was evident” value is ≤ 30 min and the “time for which difference in glucose levels persisted” value was “up to 4.5 hours”. Also, the sensitivity to insulin result in the experiment with db/db mice (fasting db/db mice, margatoxin IP 30 minutes before insulin, vs PBS) is on record as “significant increase in sensitivity to insulin”.

The record behind these values is patent US6861405B2, “Compositions and methods relating to glucose metabolism, weight control, and food intake” (priority 2001, dated 2005).
